Data on 13 compounds can be found in PubChem BioAssay AID2060909 (Molecular Pharmacology Branch, DTP, NCI, 2025).

The assay concerns 362531-283-R-J2-PDC complex spheroid viability. Kind of assay: Anticancer human tumor 362531-283-R-J2-PDC patient-derived colon adenocarcinoma cell line growth inhibition [RAS]. Conditions: for viability, T/C: stronger effect = lower value. The text has this:
RAS pathway inhibitors in Combinations in Complex Spheroids
A high-throughput screen of multi-cell type tumor spheroids was designed to identify active combinations of RAS pathway inhibitors and targeted small molecules. Complex spheroids include a stromal component modeled by human endothelial cells (HUVEC) and fibroblasts modeled by human mesenchymal stem cells (MSCs). The concentration ranges selected for each drug and investigational agent were based upon clinically achievable concentrations if the clinical Cmax of the agent was known.
Compounds. The drugs and investigational agents: abemaciclib (NSC768073), cobimetinib (NSC768068), divarasib (GDC6063, NSC841802), docetaxel (NSC628503), GDC-1971 (RLY-1971, NSC841576), gemcitabine (NSC613327), inavolisib (NSC800729), ipatasertib (NSC767898), KB-0742 (NSC834161), MRTX-1133 (NSC836407), osimertinib (NSC779217), RMC-4630 (NSC839698), RMC-6236 (NSC851965), RMC-6291 (NSC852671), Ro-3306 (NSC812927), sapanisertib (NSC764658), SN-38 (NSC673596), staurosporine (NSC755774), SY5609 (NSC837396), and tovorafenib (DAY101, NSC766906), were obtained from the National Cancer Institute (NCI) Developmental Therapeutics Program Chemical Repository. The FDA-approved anticancer drug set is available from the NCI Developmental Therapeutics Program. […] The stock solutions were prepared in dimethyl sulfoxide (DMSO, Sigma-Aldrich, St. Louis, MO, cat. D2650) at 800-fold the tested concentration and stored at -70 degrees C prior to their use. All drugs and investigational agents were tested over a range starting from a high concentration at or near the clinical Cmax and decreasing in half-log increments. If the clinical Cmax for an agent had not been determined, the highest concentration tested was 10 microM.
Cell Culture. All cells were maintained in an incubator at 37 degrees C and 5% CO2 with 95% humidity. The PDC lines were cultured according to standard operating procedures established by the NCI PDMR. All PDCs were thawed and cultured in Matrigel-coated flasks prepared with a working solution of 1X Ham's F-12 nutrient mix, without supplementation (Invitrogen, Waltham, MA, cat. 11765054), 100 U/mL penicillin-streptomycin (Invitrogen, cat. 15140122), and 2.5% Matrigel (Corning Inc., Corning, NY, cat. 354248) for the first three passages. The 362531-283-R-J2-PDC and 782815-120-R-J1-PDC lines were cultured in 6C/Colon 1B media, which includes advanced DMEM/F-12 (Thermo Fisher Scientific, cat. 12634028), 10 mM HEPES (Thermo Fisher Scientific, cat. 15630080), 1X GlutaMAX supplement (Thermo Fisher Scientific, cat. 35050061), 0.1 mg/mL primocin (InvivoGen, San Diego, CA, cat. ant-pm-2), 10% defined fetal bovine serum, heat inactivated (HyClone Laboratories Inc., Logan, UT, cat. SH30070.03HI), 50% L-WRN conditioned media (ATCC, cat. CRL-3276), 1.25 mM N-Acetyl-L-cysteine (Sigma-Aldrich, cat. A9165), 10 mM nicotinamide (Sigma-Aldrich, cat. N0636), 1X B-27 supplement (Thermo Fisher Scientific, cat. 17504044), 1X N-2 supplement (Thermo Fisher Scientific, cat. 17502048), 50 ng/mL human EGF (Thermo Fisher Scientific, cat. PHG0311), and 10 microM Y-27632 dihydrochloride (Tocris Bioscience, cat. 1254). The K12877-001-R-J1-PDC line was cultured in 6I media, which includes all 6C/Colon 1B media plus 10 ng/mL human FGF-10 (PeproTech, cat. 100-26), 1 ng/mL human FGF-2 (PeproTech, cat. 100-18B), 1 µM prostaglandin E2 (Tocris Bioscience, cat. 2296), […] hydrocortisone (Sigma-Aldrich, cat. H4001), and […] bovine insulin (Sigma-Aldrich, cat. I6634). The K86415-001-R-J1-PDC line was cultured in 6D media, which includes all 6C/Colon 1B media components minus the L-WRN conditioned media. The 485176-168-R4-J1-PDC was cultured in PANC media, which includes all 6C/Colon 1B media plus 100 ng/mL human FGF-10 (PeproTech, cat. 100-26), 500 nM SB-431542 (Selleckchem, cat. S1067), and 10 nM gastrin (Tocris Bioscience, cat. 3006). […]

[1] abbreviates: compound alone, run of 07/15/2024.
Setting [2] is: compound alone, run of 07/09/2024.

Where “and” joins values, the source holds several entries; their conditions need not be identical. Identical values can stand only once.
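Note: spheroids exposed to the agents for 7 days before readout.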
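Throughout, for viability, T/C: luminescence viability as percent of DMSO vehicle control wells.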

A word on the viability, T/C: it is the ratio of treated to control. For orientation: IC50 means the concentration that gives 50% inhibition. As to `C#Cc1c(F)ccc2cc(O)cc(-c3ncc4c(N5CC6CCC(C5)N6)nc(OCC56CCCN5CC(F)C6)nc4c3F)c12` (centres undefined), the viability, T/C (compound 0.0316 µM) was 99.9% [middle of 8 runs]; the viability, T/C (compound 0.1 µM) is 101% [middle of 8 runs]; the viability, T/C (compound 0.316 µM) was 94.8% [middle of 8 runs]; the viability, T/C (compound 1 µM) was 79.1% [middle of 8 runs]; the viability, T/C (compound 10 µM) is 54.6% [middle of 8 runs]. Also, the IC50 under setting [1] was 6.73 µM and > 10 µM and 9.19 µM.
In the case of `C=CC(=O)N1CCN(c2nc(OCC3CCCN3C)nc3c(F)c(-c4nc(N)cc(C)c4C(F)(F)F)c(Cl)cc23)C(C)C1` (centres undefined), the viability, T/C by setting is: (compound 0.00316 µM) 104% [middle of 12 runs]; (compound 0.01 µM) 108% [middle of 12 runs]; (compound 0.0316 µM) 102% [middle of 12 runs]; (compound 0.1 µM) 102% [middle of 12 runs]; (compound 0.316 µM) 102% [middle of 12 runs]. For the same compound, the IC50 is above 1 µM under setting [1] and above 1 µM (curve of compound).
With `C=CC(=O)Nc1cc(Nc2nccc(-c3cn(C)c4ccccc34)n2)c(OC)cc1N(C)CCN(C)C`, the viability, T/C is, setting by setting: (compound 0.00316 µM) 98.8% [middle of 4 runs]; (compound 0.01 µM) 92.5% [middle of 4 runs]; (compound 0.0316 µM) 101% [middle of 4 runs]; (compound 0.1 µM) 101% [middle of 4 runs]; (compound 0.316 µM) 96.5% [middle of 4 runs]; (compound 1 µM) 85.1% [middle of 4 runs]. The IC50 (curve of compound) is above 1 µM.
For the compound `CC(C)NCC(C(=O)N1CCN(c2ncnc3c2C(C)CC3O)CC1)c1ccc(Cl)cc1` (centres undefined), the viability, T/C (compound 0.0316 µM) is 103% [middle of 4 runs]; the viability, T/C (compound 0.1 µM) was 103% [middle of 4 runs]; the viability, T/C (compound 0.316 µM) was 103% [middle of 4 runs]; the viability, T/C (compound 1 µM) is 101% [middle of 4 runs]; the viability, T/C (compound 3.16 µM) is 98.5% and 102% (2×) and 98.2%; the viability, T/C (compound 10 µM) was 98.2% [middle of 4 runs]. The IC50 (curve of compound) is above 10 µM.
With `CC(C)n1nc(-c2ccc3oc(N)nc3c2)c2c(N)ncnc21`, the viability, T/C is, setting by setting: (compound 0.000316 µM) 103% [middle of 4 runs]; (compound 0.001 µM) 99.1% [middle of 4 runs]; (compound 0.00316 µM) 101% [middle of 4 runs]; (compound 0.0316 µM) 63.5% [middle of 4 runs]. In addition, the IC50 (curve of compound) is 0.0539 µM and > 0.1 µM and 0.0758 µM.
Regarding `CC(Nc1ccc2c(c1)OCCn1cc(N3C(=O)OCC3C(F)F)nc1-2)C(N)=O` (centres undefined), the viability, T/C is 96.9% [middle of 4 runs] (compound 0.0316 µM); 97.1% [middle of 4 runs] (compound 0.1 µM); 63.1% [middle of 4 runs] (compound 1 µM); 43.1% [middle of 4 runs] (compound 3.16 µM); 32.6% [middle of 4 runs] (compound 10 µM). The IC50 (curve of compound) was 1.77 µM [middle of 4 runs].
On to `CC1(C)CCC(Nc2ncc(C(F)(F)F)c(-c3c[nH]c4c(P(C)(C)=O)c(C#N)ccc34)n2)CN1` (centres undefined), for which the viability, T/C (compound 0.000949 µM) was 104% [middle of 4 runs]; the viability, T/C (compound 0.003 µM) was 98.7% [middle of 4 runs]; the viability, T/C (compound 0.00949 µM) is 107% [middle of 4 runs]; the viability, T/C (compound 0.03 µM) was 101% [middle of 4 runs]; the viability, T/C (compound 0.0949 µM) was 104% [middle of 4 runs]; the viability, T/C (compound 0.3 µM) is 108% [middle of 4 runs]. Further, the IC50 (curve of compound) is above 0.3 µM.
Turning to `CCN1CCN(Cc2ccc(Nc3ncc(F)c(-c4cc(F)c5nc(C)n(C(C)C)c5c4)n3)nc2)CC1`, the viability, T/C by setting is: (compound 0.00316 µM) 100% (2×) and 99.6% and 106%; (compound 0.01 µM) 95.9% [middle of 4 runs]; (compound 0.1 µM) 79.9% [middle of 4 runs]; (compound 0.316 µM) 65.4% [middle of 4 runs]. The IC50 (curve of compound) was above 1 µM.
For the compound `CCc1c2c(nc3ccc(O)cc13)-c1cc3c(c(=O)n1C2)COC(=O)[C@]3(O)CC`, the viability, T/C was 92.4% [middle of 4 runs] (compound 0.000949 µM); 93.4% [middle of 4 runs] (compound 0.003 µM); 74.5% [middle of 4 runs] (compound 0.00949 µM); 61.8% [middle of 4 runs] (compound 0.03 µM); 30.2% [middle of 4 runs] (compound 0.0949 µM); 19.9% [middle of 4 runs] (compound 0.3 µM). The IC50 (curve of compound) is 43.7 nM [middle of 4 runs].
Consider `CCn1c(-c2cc(N3CCN(C)CC3)cnc2C(C)OC)c2c3cc(ccc31)-c1csc(n1)CC(NC(=O)C1CC1C)C(=O)N1CCCC(N1)C(=O)OCC(C)(C)C2` (centres undefined), for which the viability, T/C (compound 0.000949 µM) is 99% [middle of 8 runs]; the viability, T/C (compound 0.003 µM) was 101% [middle of 8 runs]; the viability, T/C (compound 0.00949 µM) was 100% [middle of 8 runs]; the viability, T/C (compound 0.03 µM) is 99.5% [middle of 8 runs]; the viability, T/C (compound 0.0949 µM) is 82.8% [middle of 7 runs]; the viability, T/C (compound 0.3 µM) is 38.5% [middle of 8 runs]. Further, the IC50 under setting [2] is 223 nM [middle of 8 runs].
In the case of `CCn1c(-c2cccnc2C(C)OC)c2c3cc(ccc31)N1CCOC(CC(NC(=O)C(C(C)C)N(C)C(=O)C3(F)CCN(C(=O)C#CC(C)(C)N(C)C)CC3)C(=O)N3CCCC(N3)C(=O)OCC(C)(C)C2)C1` (centres undefined), the viability, T/C is 103% [middle of 8 runs] (compound 0.000949 µM); 102% [middle of 8 runs] (compound 0.003 µM); 107% [middle of 8 runs] (compound 0.00949 µM); 103% [middle of 8 runs] (compound 0.03 µM); 104% [middle of 8 runs] (compound 0.0949 µM); 100% [middle of 8 runs] (compound 0.3 µM). Besides, the IC50 under setting [2] is above 0.3 µM.
`Nc1ccn(C2OC(CO)C(O)C2(F)F)c(=O)n1` (centres undefined): the viability, T/C by setting is: (compound 0.00316 µM) 93.5% [middle of 4 runs]; (compound 0.01 µM) 95.2% [middle of 4 runs]; (compound 0.0316 µM) 84.4% [middle of 4 runs]; (compound 0.1 µM) 70.5% [middle of 4 runs]; (compound 0.316 µM) 21.9% [middle of 4 runs]; (compound 1 µM) 26.6% [middle of 4 runs]. Under “curve of compound”, the IC50 was 167 nM [middle of 4 runs].
On to `O=C(c1ccc(F)c(F)c1Nc1ccc(I)cc1F)N1CC(O)([C@@H]2CCCCN2)C1`, for which the viability, T/C runs as follows: (compound 0.00316 µM) 100% [middle of 4 runs]; (compound 0.01 µM) 94.8% [middle of 4 runs]; (compound 0.1 µM) 90.7% [middle of 4 runs]; (compound 0.316 µM) 64.7% [middle of 4 runs]; (compound 1 µM) 19% [middle of 4 runs]. For the same compound, for the setting “curve of compound”, the IC50 was 507 nM [middle of 4 runs].
